Experimental data published in patent US9204653B2, “5-fluoro pyrimidine derivatives” (DOW AGROSCIENCES LLC, priority 2008, dated 2015).
Where two headings read alike, the source gives them in different places.

Tested on: Mycosphaerella graminicola; Anamorph: Septoria tritici; Bayer Code SEPTTR
Experiment: Leaf blotch of wheat, foliar fungicide treatment, one day protectant (1DP) or three day curative (3DC)
Format: in vivo, Septoria tritici on wheat plants (variety Yuma)
Settings: Zymoseptoria tritici; for pest or weed control at 50 ppm / pest or weed control at 200 ppm: % disease control rating
[1] = 24 h, one day protectant (1DP), 25 ppm, rating of percent disease control, read-out: SETTTR 1DP 25 ppm
[2] = 24 h, one day protectant (1DP), rating of percent disease control, read-out: SEPTTR 1DP 100 ppm
[3] = 72 h, three day curative (3DC), 25 ppm, rating of percent disease control, read-out: SEPTTR 3DC 25 ppm
[4] = 72 h, three day curative (3DC), rating of percent disease control, read-out: SEPTTR 3DC 100 ppm
[5] = 24 h, one day protectant (1DP), 25 ppm (first 1DP column), percent control rating, read-out: SETTTR 1DP 25 ppm
[6] = 24 h, one day protectant (1DP), 25 ppm as printed (second 1DP column), percent control rating, read-out: SETTTR 1DP 25 ppm
[7] = 72 h, three day curative (3DC), 25 ppm, percent control rating, read-out: SEPTTR 3DC 25 ppm
[8] = 72 h, three day curative (3DC), percent control rating, read-out: SEPTTR 3DC 100 ppm
[9] = 24 h, one day protectant (1DP), 25 ppm, percent disease control rating, read-out: SETTTR 1DP 25 ppm
[10] = 24 h, one day protectant (1DP), percent disease control rating, read-out: SEPTTR 1DP 100 ppm
[11] = 72 h, three day curative (3DC), 25 ppm, percent disease control rating, read-out: SEPTTR 3DC 25 ppm
[12] = 72 h, three day curative (3DC), percent disease control rating, read-out: SEPTTR 3DC 100 ppm
[13] = 24 h, one day protectant, 25 ppm, rating of percent disease control, read-out: SETTTR 1DP 25 ppm
[14] = 24 h, one day protectant, rating of percent disease control, read-out: SEPTTR 1DP 100 ppm
[15] = 72 h, three day curative, 25 ppm, rating of percent disease control, read-out: SEPTTR 3DC 25 ppm
[16] = 72 h, three day curative, rating of percent disease control, read-out: SEPTTR 3DC 100 ppm

Work on CCN(N)c1nc(OCc2cccc(OC)c2)ncc1F [Compound 340] yielded a pest or weed control at 25 ppm [1] of 0 to 25%, a pest or weed control at 100 ppm [2] of 76 to 100% and a pest or weed control at 25 ppm [3] of 26 to 50%. The pest or weed control at 100 ppm [4] was 76 to 100%.

In the case of COc1cccc(COc2ncc(F)c(N/N=C/c3ncc[nH]3)n2)c1 [Compound 532], the pest or weed control at 25 ppm [1] is reported as 26 to 50%, the pest or weed control at 100 ppm [2] is reported as 51 to 75% and the pest or weed control at 25 ppm [3] is reported as 0 to 25%. For the same compound, the pest or weed control at 100 ppm [4] was 26 to 50%.

COc1ncc(F)c(N/N=C(\C)c2sc(C)nc2C)n1 [Compound 1025] was tested, and the pest or weed control at 25 ppm [5] was 0 to 25%, the pest or weed control at 25 ppm [6] was 0 to 25% and the pest or weed control at 25 ppm [7] was 26 to 50%. For the same compound, the pest or weed control at 100 ppm [8] was 0 to 25%.

COc1ncc(F)c(NNc2nccc(C(F)(F)F)n2)n1 [Compound 1049] gave a pest or weed control at 25 ppm [5] of 0 to 25%, a pest or weed control at 25 ppm [6] of 0 to 25% and a pest or weed control at 25 ppm [7] of 26 to 50%. The pest or weed control at 100 ppm [8] was 26 to 50%.

Work on COc1ccc(/C=N/Nc2nc(OCc3cccc(OC)c3)ncc2F)cc1 [Compound 65] yielded a pest or weed control at 25 ppm [9] of 26 to 50%, a pest or weed control at 100 ppm [10] of 51 to 75% and a pest or weed control at 25 ppm [11] of 26 to 50%. For the same compound, the pest or weed control at 100 ppm [12] was 51 to 75%.

With Cc1coc(C)c1C(=O)Nc1nc(O)ncc1F [Compound 977] the pest or weed control at 25 ppm [5] was 0 to 25%, the pest or weed control at 25 ppm [6] was 51 to 75% and the pest or weed control at 25 ppm [7] was 0 to 25%. For the same compound, the pest or weed control at 100 ppm [8] was 76 to 100%.

Work on NN(Cc1ccccc1)c1nc(OCc2ccc(F)cc2)ncc1F [Compound 380] yielded a pest or weed control at 25 ppm [1] of 76 to 100%, a pest or weed control at 100 ppm [2] of 76 to 100% and a pest or weed control at 25 ppm [3] of 0 to 25%. The pest or weed control at 100 ppm [4] was 76 to 100%.

In the case of COc1ccccc1COc1ncc(F)c(NCO)n1 [Compound 571], the pest or weed control at 25 ppm [13] is reported as 76 to 100%, the pest or weed control at 100 ppm [14] is reported as 76 to 100% and the pest or weed control at 25 ppm [15] is reported as 76 to 100%. For the same compound, the pest or weed control at 100 ppm [16] was 76 to 100%.

CC(C)Oc1ncc(F)c(N)n1 [Compound 267] gave a pest or weed control at 25 ppm [1] of 0 to 25%, a pest or weed control at 100 ppm [2] of 0 to 25% and a pest or weed control at 25 ppm [3] of 0 to 25%. It also gave a pest or weed control at 100 ppm [4] of 0 to 25%.

COc1cccc(COc2ncc(F)c(NC(=S)Nc3ccccc3F)n2)c1 [Compound 639] was tested, and the pest or weed control at 25 ppm [13] was 76 to 100%, the pest or weed control at 100 ppm [14] was 76 to 100% and the pest or weed control at 25 ppm [15] was 51 to 75%. The pest or weed control at 100 ppm [16] was 76 to 100%.

Work on CN(C)/C=N/c1nc(OC(=O)c2c(Cl)cccc2Cl)ncc1F [Compound 234] yielded a pest or weed control at 25 ppm [1] of 76 to 100%, a pest or weed control at 100 ppm [2] of 76 to 100% and a pest or weed control at 25 ppm [3] of 76 to 100%. The pest or weed control at 100 ppm [4] was 76 to 100%.

COc1ccc(S(=O)(=O)Oc2ncc(F)c(/N=C/N(C)C)n2)cc1 [Compound 264] showed a pest or weed control at 25 ppm [1] of 51 to 75%, a pest or weed control at 100 ppm [2] of 76 to 100% and a pest or weed control at 25 ppm [3] of 76 to 100%. For the same compound, the pest or weed control at 100 ppm [4] was 76 to 100%.

For O=C(Nc1ccccc1)Nc1nc(OCc2cccc(F)c2)ncc1F [Compound 332], the pest or weed control at 25 ppm [1] was 76 to 100%, the pest or weed control at 100 ppm [2] was 76 to 100% and the pest or weed control at 25 ppm [3] was 51 to 75%. For the same compound, the pest or weed control at 100 ppm [4] was 26 to 50%.

Work on Cc1cnc(CNc2nc(OCC(F)(F)F)ncc2F)cn1 [Compound 818] yielded a pest or weed control at 50 ppm (24 h, one day protectant) of 0 to 25% and a pest or weed control at 200 ppm (24 h, one day protectant) of 0 to 25%.

Fc1ccc(COc2ncc(F)c(NCc3ccccc3F)n2)cc1F [Compound 825] showed a pest or weed control at 50 ppm (24 h, one day protectant) of 51 to 75% and a pest or weed control at 200 ppm (24 h, one day protectant) of 76 to 100%.

With N#Cc1cccc(COc2ncc(F)c(NC(=O)NCc3ccccc3F)n2)c1 [Compound 34, 1-[2-(3-Cyanobenzyloxy)-5-fluoropyrimidin-4-yl]-3-(2-fluorobenzyl)urea] the pest or weed control at 25 ppm [9] was 0 to 25%, the pest or weed control at 100 ppm [10] was 0 to 25% and the pest or weed control at 25 ppm [11] was 0 to 25%. For the same compound, the pest or weed control at 100 ppm [12] was 0 to 25%.

In the case of COc1ncc(F)c(NOCc2ccc([N+](=O)[O-])cc2)n1 [Compound 1073], the pest or weed control at 25 ppm [5] is reported as 26 to 50%, the pest or weed control at 25 ppm [6] is reported as 0 to 25% and the pest or weed control at 25 ppm [7] is reported as 0 to 25%. For the same compound, the pest or weed control at 100 ppm [8] was 0 to 25%.

With Fc1cnc(OCc2ccc(Cl)cc2)nc1NCc1ccc2c(c1)OCO2 [Compound 842] the pest or weed control at 50 ppm (24 h, one day protectant) was 76 to 100% and the pest or weed control at 200 ppm (24 h, one day protectant) was 76 to 100%.

O=C(Nc1nc(OCc2ccc(F)cc2)ncc1F)OCCl [Compound 262] was tested, and the pest or weed control at 25 ppm [1] was 51 to 75%, the pest or weed control at 100 ppm [2] was 76 to 100% and the pest or weed control at 25 ppm [3] was 76 to 100%. The pest or weed control at 100 ppm [4] was 76 to 100%.

Compound Cc1ccc(COc2ncc(F)c(NS(=O)(=O)c3c(Br)cnn3C)n2)cc1 [Compound 1027] has a pest or weed control at 25 ppm [5] of 0 to 25%, a pest or weed control at 25 ppm [6] of 0 to 25% and a pest or weed control at 25 ppm [7] of 0 to 25%. The pest or weed control at 100 ppm [8] was 0 to 25%.
